{"source": "patent US20060160897A1", "about": "“Topical Use of Valproic Acid for the Prevention or Treatment of Skin Disorders” (priority 2003, published 2006)", "key": {"[1]": {"system": "inflammatory cytokines", "test": "RT-PCR of cytokine mRNA, blood cells of VPA treated patient stimulated with CD3/CD28", "format": "in vivo, human", "description": "Total RNA from unstimulated and CD3/CD28 stimulated cells was isolated using the RNeasy mini kit (Qiagen). One microgram of total RNA was converted to cDNA by standard methods using reverse transcriptase and an oligo-dT primer (Invitrogen). For semiquantitative PCR, 2 μl of cDNA were amplified by PCR using the specific primers as described above (FIG. 19C)."}, "[2]": {"system": "HaCaT cells", "test": "Apoptosis assay, flow cytometry of Sub-G1 DNA containing cells", "format": "cell-based, human", "details": "drugs day 1, assay day 2, combinations VPA 1 mM + Tazarotene 1 or 2 μM, FIG. 5", "description": "Apoptosis assays: Apoptosis was measured by a Beckton Dickinson FACScalibur flow cytometer by analysing the percentage of Sub-G1 DNA containing cells. 10000 events were recorded for each sample. The amplification scale was linear for all parameters. Photomultiplier tension was set as to place the peak DNA content corresponding cells in G0/G1 at channel 300 in the FL2-H vs SCC—H graphs. Cells showing a less than peak DNA content (hypodiploid cells) and high SSC—H (granular high condensed cells) were regarded as apoptotic. The experiments were repeated three times in duplicate. Error bars represent 1 standard deviation.\nCells were plated in 35 mm diameter wells on day 0. Drugs were added on day 1. The apoptosis assay was carried out on day 2. […] Thus, the combinatorial activity of these two drugs must be explained via synergistic activity of this treatment."}, "[3]": {"test": "In vitro skin permeation assay, Franz type diffusion cell with SCE membranes", "format": "in vitro ADME, human", "details": "sodium valproate 3% (w/w) in Sepigel gel, SCE membranes 0.75 cm^2, 10 h, 35° C.; FIG. 6", "description": "The resulting gel was stored at room temperature for 24 h prior to use.\nIn vitro skin permeation assay: The analyses were carried out using a Franz type glass diffusion cell (LGA, Berkeley, Calif., USA) assembled with membranes carrying stratum corneum and epidermis (SCE). Adult human skin samples (mean age 29±5 years) were obtained from abdominal reduction surgery. Subcutaneous fat was trimmed and the skin samples were immersed in distilled water at 60° C. for 1 min; then stratum corneum and epidermis (SCE) were peeled off The SCE samples were dried at room temperature in a desiccator maintained at approximately 25% relative humidity. […] Skin barrier integrity of the SCE membranes used in this protocol was assessed by determining their tritiated water permeability coefficient (Kp). […] All samples were analyzed for sodium valproate contents by means of an HPLC with spectrofluorimetric detection. The results were expressed as total amount permeated (mg).\nQuantitative determination of Sodium Valproate: To determine sodium valproate, samples were derivatized with 4-bromomethyl-7-methoxycoumarin (BMMC). […]\nAdult human skin samples (skin surface area was 0.75 cm^2) were prepared as described in the methods section. […] All samples were analyzed for sodium valproate contents by means of an HPLC with spectrofluorimetric detection. The results were expressed as total amount permeated (mg)."}, "[4]": {"system": "mouse embryos", "details": "mice, when properly dosed; cited from earlier work"}, "[5]": {"system": "histone H4 acetylation", "test": "Western blot of acetylated histone H4 in keratinocytes", "format": "cell-based, human", "details": "HaCaT, 24 hours treatment; FIG. 7", "description": "Western blot: HaCaT cells were seeded into 6-well culture dishes 24 hrs before treatment. […] Whole cell extracts were prepared by lysis of cells in RIPA buffer plus protease inhibitors for denaturing SDS gel electrophoresis on a 12% denaturing polyacrylamid gel. Acetylated histone H4 was detected by Western blot analysis using an anti-acetylated H4 antibody (clone T25; see patent application EP 02.021984.6) and as an equal loading control expression of β-actin was confirmed using an anti-actin antibody (Sigma, Cat. No. A5441).\nCells were plated in 6 well plates at day 0. Drugs were added on day 1, cells were lysed on day 2 with RIPA buffer plus protease inhibitors. 40 μg of total cell lysate were separated by 12.5% SDS PAGE and subjected to immunoblotting with the indicated antibodies."}, "[6]": {"system": "acetylated histones H3 and H4 and HDAC-2", "test": "Western blot of peripheral blood cells from patients treated with VPA intravenously (Phase I/II study)", "format": "in vivo, human", "details": "before, 6 h, 24 h, 48 h after start, FIG. 18", "description": "Whole cell extracts were prepared by lysis of cells in RIPA buffer including protease inhibitors. Lysates were separated by SDS gel electrophoresis and transferred onto PVDF membranes. Acetylated histones H3 and H4 and the marker gene HDAC-2 were detected by western blot analysis using an anti-acetylated H3 antibody (Upstate, #06-942), an anti-acetylated H4 antibody (clon T25; patent application EP 02.021984.6), and an anti-HDAC-2 antibody (SCBT, SC-7899). As an equal loading control PVDF membranes were stained with Coomassie (FIG. 18)."}, "[7]": {"details": "starting at 24 hours of VPA treatment"}}}
{"smiles": "CCCC(CCC)C(=O)O", "note": "[VPA, 2-propyl-pentanoic acid]", "values": [{"measurement": "IL-2 mRNA transcripts", "setting": "[1]; CD3/CD28 stimulated", "result": "decrease"}, {"measurement": "TNF-α mRNA transcripts", "setting": "[1]; CD3/CD28 stimulated", "result": "decrease"}, {"measurement": "IFN-γ mRNA expression", "setting": "[1]; [7]", "result": "significantly reduced"}, {"measurement": "IL-4 mRNA expression", "setting": "[1]; [7]", "result": "significantly reduced"}, {"measurement": "apoptosis (Sub-G1 DNA containing cells)", "setting": "[2]", "result": "clear increase in subG1 DNA content"}, {"measurement": "permeation of human skin (total amount permeated)", "setting": "[3]", "result": "permeates the skin in a time dependent manner"}, {"measurement": "teratogenicity", "setting": "[4]", "result": "teratogenic in the majority of mouse embryos"}, {"measurement": "histone H4 acetylation (Western blot)", "setting": "[5]", "result": "induces histone H4 hyperacetylation in a dose dependent manner"}, {"measurement": "HDAC-2 protein in peripheral blood cells", "setting": "[6]", "result": "down-regulation of the marker protein HDAC-2"}, {"measurement": "histone H3 and H4 acetylation in peripheral blood cells", "setting": "[6]", "result": "Histone H3 and H4 hyperacetylation"}]}
